Where two headings read alike, the source gives them in different places.
Assays:
VEGF receptor KDR = target: T1, VEGF receptor KDR (Homo sapiens, UniProt P35968); experiment: In vitro receptor tyrosine kinase assay (DELFIA), VEGF receptor KDR; format: biochemical; conditions: ATP 0.6 uM, enzyme 5 nM
T1 construct: made in house; host or cells: Sf9 cells (Spodoptera frugiperda), recombinant baculovirus
From the text: In Vitro Receptor Tyrosine Kinase Assays (c-Met/HGF receptor and VEGF Receptor KDR)
In the case of VEGF receptor KDR a 1.6-kb cDNA corresponding to the catalytic domain of VEGFR2 or KDR (Genbank accession number AF035121 amino acid 806 to 1356) was cloned into the Pst I site of the pDEST20 Gateway vector (Invitrogen) for the production of a GST-tagged version of that enzyme.
The GST-VEGFR2806-1356 protein was expressed in Sf9 cells (Spodoptera frugiperda) upon infection with recombinant baculovirus construct.
The supernatant was loaded onto a GST-agarose column (Sigma) equilibrated with PBS pH 7.3. Following a four column volume (CV) wash with PBS pH 7.3+1% Triton X-100 and 4 CV wash with buffer B (50 mM Tris pH 8.0, 20% glycerol and 100 mM NaCl), bound proteins were step eluted with 5 CV of buffer B supplemented with 5 mM DTT and 15 mM glutathion. […] Final GST-VEGFR2806-1356 protein preparations concentrations were about 0.7 mg/ml with purity approximating 70%.

A549 = A549 wound healing inhibition (HGF dependent migration); format: cell-based; conditions: Homo sapiens, Table 31, read-out: A549 wound healing inbib IC50
From the text: (§1) HGF has well known activity in terms of inducing scattering and migration (wound healing) (Wells et al., Cell Motil Cytoskeleton. 2005 November 62(3):180-94; Miura et al., Urology 2001 December 58(6):1064-9; Nishimura et al., Int J. Urol. 1998 May 5(3):276-81; Wang et al., Mol Cancer Ther. 2003 November; 2(11):1085-92; and Christensen et al., Cancer Res. 2003 Nov. 1; 63(21):7345-55).

DU145 = DU145 scattering inhibition (HGF dependent scattering); format: cell-based; conditions: Homo sapiens, DU-145, Table 31, read-out: DU145 scattering inhib IC50
From the text: as §1

[1] = target: T2, recombinant human c-Met/HGF receptor (Homo sapiens, UniProt P08581); experiment: In vitro receptor tyrosine kinase assay (DELFIA), c-Met/HGF receptor; format: biochemical; conditions: ATP 10 uM, enzyme 25 nM
T2 construct: His tag (histidine tag from pBlueBacHis2A); made in house; host or cells: Hi-5 cells (Trichoplusia ni), recombinant baculovirus
T2 sequence (P08581 1078-1337): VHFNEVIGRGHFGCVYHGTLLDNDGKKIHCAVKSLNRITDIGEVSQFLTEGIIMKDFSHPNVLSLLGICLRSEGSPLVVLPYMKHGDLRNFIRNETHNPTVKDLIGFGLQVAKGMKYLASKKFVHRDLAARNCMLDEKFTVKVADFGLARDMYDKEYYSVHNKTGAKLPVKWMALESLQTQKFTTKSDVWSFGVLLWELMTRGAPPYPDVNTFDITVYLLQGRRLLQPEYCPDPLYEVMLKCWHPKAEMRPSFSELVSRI

[2] = Table 30, read-out: VEGF(enz.) (IC50)
[3] = Table 30, read-out: C-Met (enz.) (IC50)

T1 sequence (P35968 806-1356): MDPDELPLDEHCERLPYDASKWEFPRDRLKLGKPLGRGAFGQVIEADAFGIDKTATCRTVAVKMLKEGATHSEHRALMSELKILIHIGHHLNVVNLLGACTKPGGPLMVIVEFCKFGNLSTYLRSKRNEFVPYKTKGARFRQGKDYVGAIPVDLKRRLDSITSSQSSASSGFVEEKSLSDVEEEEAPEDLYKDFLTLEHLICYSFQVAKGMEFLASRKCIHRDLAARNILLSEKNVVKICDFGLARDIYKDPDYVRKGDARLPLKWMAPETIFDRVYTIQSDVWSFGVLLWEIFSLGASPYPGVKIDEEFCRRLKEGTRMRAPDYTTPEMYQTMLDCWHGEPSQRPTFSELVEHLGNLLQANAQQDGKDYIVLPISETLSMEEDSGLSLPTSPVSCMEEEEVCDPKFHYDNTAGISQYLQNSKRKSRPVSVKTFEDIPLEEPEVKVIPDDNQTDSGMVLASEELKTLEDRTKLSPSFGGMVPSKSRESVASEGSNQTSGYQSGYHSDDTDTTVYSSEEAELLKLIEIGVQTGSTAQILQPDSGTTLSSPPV

Row | SMILES | IC50 (A549) [nM] | IC50 (DU145) [nM] | IC50 (VEGF receptor KDR; [2]) [nM] | also measured
1 | C#Cc1cc(F)ccc1CC(=O)NC(=S)Nc1ccc(Oc2ccnc3cc(C4=CCN(C)CC4)sc23)c(F)c1 | < 1000 | < 1000 | – | IC50 (VEGF receptor KDR; Table 31, read-out: VEGFR IC50): 50 to 250 nM; IC50 ([1]; Table 31, read-out: CMet ic50): < 50 nM
2 | CCn1cc(-c2cc3nccc(Oc4ccc(NC(=S)NC(=O)Cc5ccccc5)cc4F)c3s2)nn1 | < 1000 | < 1000 | – | IC50 (VEGF receptor KDR; Table 31, read-out: VEGFR IC50): 250 to 500 nM; IC50 ([1]; Table 31, read-out: CMet ic50): < 50 nM
3 | COCCNCc1ccc(-c2cc3nccc(Oc4ccc(NC(=S)NC(=O)Cc5ccc(F)cc5)cc4F)c3s2)nc1 | < 1000 | < 1000 | – | IC50 (VEGF receptor KDR; Table 31, read-out: VEGFR IC50): < 50 nM
4 | COCCN(CCOC)Cc1cccc(-c2cc3nccc(Oc4ccc(NC(=S)NC(=O)Cc5ccc(F)cc5)cc4F)c3s2)c1 | < 1000 | < 1000 | – | IC50 ([1]; Table 31, read-out: CMet ic50): < 50 nM
5 | CN(CCO)Cc1ccc(-c2cc3nccc(Oc4ccc(NC(=S)NC(=O)Cc5ccc(F)cc5)cc4F)c3s2)nc1 | – | < 1000 | – | IC50 (VEGF receptor KDR; Table 31, read-out: VEGFR IC50): < 50 nM; IC50 ([1]; Table 31, read-out: CMet ic50): < 50 nM
6 | COCCNCc1ccc(-c2cc3nccc(Oc4ccc(NC(=S)NC(=O)Cc5ccc(F)cc5)cc4F)c3s2)c(F)c1 | < 1000 | < 1000 | – | –
7 | CCCNCc1ccc(-c2cc3nccc(Oc4ccc(NC(=S)NC(=O)Cc5ccc(F)cc5)cc4F)c3s2)cc1 | < 1000 | < 1000 | – | –
8 | CNC(=O)c1cc2nccc(Oc3ccc(NC(=S)NC(=O)Cc4ccccc4)cc3F)c2s1 [Example 5, 1-(4-(2-(methylcarbamoyl)thieno[3,2-b]pyridin-7-yloxy)-3-fluorophenyl)-3-(2-phenylacetyl)thiourea] | – | – | 50 to 250 | –
9 | NC(=O)c1cc2nccc(Oc3ccc(NC(=S)NC(=O)Cc4ccccc4)cc3F)c2s1 [Example 9, 1-(4-(2-carbamoylthieno[3,2-b]pyridin-7-yloxy)-3-fluorophenyl)-3-(2-phenylacetyl)thiourea] | – | – | 50 to 250 | –
10 | O=C(Cc1ccccc1)NC(=S)Nc1ccc(Oc2ccnc3cc(-c4ncccn4)sc23)c(F)c1 [Example 14, N-(3-Fluoro-4-(2-(pyrimidin-2-yl)thieno[3,2-b]pyridin-7-yloxy)phenylcarbamothioyl)-2-phenylacetamide] | – | – | 50 to 250 | –
11 | O=C(Cc1ccccc1)NC(=S)Nc1ccc(Oc2ccnc3cc(-c4cccs4)sc23)c(F)c1 [Example 16] | – | – | < 50 | –
12 | O=C(Cc1ccccc1)NC(=S)Nc1ccc(Oc2ccnc3cc(-c4cccnc4)sc23)c(F)c1 [Example 18] | – | – | 50 to 250 | –
13 | CC(O)c1cc2nccc(Oc3ccc(NC(=S)NC(=O)Cc4ccccc4)cc3F)c2s1 (stereo not drawn) [Example 20, 1-(4-(2-(1-Hydroxyethyl)thieno[3,2-b]pyridin-7-yloxy)-3-fluorophenyl)-3-(2-phenylacetyl)thiourea] | – | – | > 500 | –
14 | CNC(=O)c1cc2ncnc(Oc3ccc(NC(=S)NC(=O)Cc4ccccc4)cc3F)c2s1 [Example 25, 1-(4-(6-(Methylcarbamoyl)thieno[3,2-d]pyrimidin-4-yloxy)-3-fluorophenyl)-3-(2-phenylacetyl)thiourea] | – | – | 50 to 250 | IC50 [1, 3]: 50 to 250 nM
15 | CON(C)C(=O)c1cc2ncnc(Oc3ccc(NC(=S)NC(=O)Cc4ccccc4)cc3F)c2s1 [Example 26, 1-(4-(6-(N-Methoxy-N-methylcarbamoyl)thieno [3,2-d]pyrimidin-4-yloxy)-3-fluorophenyl)-3-(2-phenylacetyl)thiourea] | – | – | 50 to 250 | IC50 [1, 3]: 50 to 250 nM
16 | NC(=O)c1cc2ncnc(Oc3ccc(NC(=S)NC(=O)Cc4ccccc4)cc3F)c2s1 [Example 27, 1-(4-(6-Carbamoylthieno[3,2-d]pyrimidin-4-yloxy)-3-fluorophenyl)-3-(2-phenylacetyl)thiourea] | – | – | 50 to 250 | IC50 [1, 3]: 50 to 250 nM
17 | Cn1ccc2ncnc(Oc3ccc(NC(=S)NC(=O)Cc4ccccc4)cc3F)c21 [Example 28, 1-(4-(5-Methyl-5H-pyrrolo[3,2-d]pyrimidin-4-yloxy)-3-fluorophenyl)-3-(2-phenylacetyl)thiourea] | – | – | > 500 | IC50 [1, 3]: 50 to 250 nM
18 | CCn1ccc2ncnc(Oc3ccc(NC(=S)NC(=O)Cc4ccccc4)cc3F)c21 [Example 29, 1-(4-(5-Ethyl-5H-pyrrolo[3,2-d]pyrimidin-4-yloxy)-3-fluorophenyl)-3-(2-phenylacetyl)thiourea] | – | – | > 500 | IC50 [1, 3]: 250 to 500 nM
19 | O=C(Cc1ccccc1)NC(=S)Nc1ccc(Oc2ccnc3ccsc23)c(F)c1 [Example 133, N-(3-Fluoro-4-(thieno[3,2-b]pyridin-7-yloxy)phenylcarbamothioyl)-2-phenylacetamide] | – | – | 50 to 250 | –
20 | O=C(Cc1ccccc1)NC(=S)Nc1ccc(Oc2ccnc3ccsc23)cc1 [Example 188, 2-Phenyl-N-(4-(thieno[3,2-b]pyridin-7-yloxy)phenylcarbamothioyl)acetamide] | – | – | > 500 | –

From patent publication US20100249145A1, “Inhibitors of VEGF Receptor and HGF Receptor Signaling” (Methylgene, Inc., priority 2005, published 2010)
